Data set [1] deals with ileum isolated from guinea-pig. Nature of the data set: Test on ileum isolated from guinea-pig (contraction, agonist activity). The class given is cell-based. To be noted: Cavia porcellus, Tyrode's solution, 37° C., read-out: pD2 (negative logarithm of the dose which produces 50% of the maximum effect) (converted). On the procedure: (§1) The products have been utilized in the hydrochloride form.
Pieces of the ileum are removed from guinea-pigs killed by decapitation. The isolated ileum is placed in 10 cm^3 of Tyrode's solution at 37° C. and aerated with a mixture of oxygen (95%) and carbon dioxide gas (5%). The contractions due to the products are recorded by means of a detector connected to a polygraph. The products to be tested are added at concentrations between 1.10^-3 M/l and 1.10^-8 M/l.
The products presenting a contraction effect are tested relative to atropine and hexamethonium to establish whether the activity is of the "muscarine" or "nicotine" type.
The agonist activity is expressed in pD2 (negative logarithm of the dose which produces 50% of the maximum effect.

The conditions of data set [2]: intravenous route; cited from earlier work.
A short description of data set [3]: Hypothermic activity, male mice (body temperature). The following applies: for ED (-1 C body temperature): Mus musculus, male mice, read-out: Effective dose (-1° C.). It counts as in vivo, mice (CD1 Charles Rivers). The method, then:
as §1
The test is carried out on male mice (CD1 Charles Rivers), weighing 25-30 g, fasting for 6 hours.
The temperature of the body is noted by means of a thermocouple placed in the rectum to about 1.5 cm and connected to an electric temperature recorder. […]
The degree of hypothermia is evaluated as the difference between the treated animals and the controls, and the dose necessary to reduce the body temperature by 1° C. is determined.
The duration of action of the products has been evaluated by using the dose which reduces the body temperature by 1° to 1.5° C.

The subject of data set [4] is central cholinergic system. The following applies: cited from earlier work.
Data set [5] can be described thus: Diarrhoeic activity, oral, male mice. The class given is in vivo, mice (CD1, Charles Rivers). The following applies: Mus musculus, read-out: ED50 (dose which caused a diarrhoea in 50% of the animals). The method, then:
as §1
The test is carried out on male mice (CD1, Charles Rivers) weighing 25 to 30 g, fasting for 6 hours.
The control animals receive only the excipient.
After treatment, the animals are put separately in cages the base of which is covered with blotting paper and are put under observation for 30, 60, 120 and 180 minutes.
The sheets of absorbent paper are changed after each observation.
1: feces slightly soft with or without humid aureola.
2: feces slightly soft with presence of a well defined humid circle.
3: feces soft with presence of a large humid circle.
4: feces without consistency with presence of a very large humid circle.

A short description of data set [6]: Acute toxicity, oral, male mice. Also on record: species or system mice (CD1 Charles Rivers). The following applies: mouse, in vivo, mortality during 7 days. On the procedure:
as §1
The test was carried out on male mice (CD1 Charles Rivers) of 22 to 24 g, fasting for 16 hours. […] The mortality is noted during the 7 days following the treatment.

By ED50 is commonly meant the midpoint of the dose-response relation. For orientation: LD50 means the dose at which mortality reaches 50%. A lower LD50 goes with a more toxic substance.

Structures are written as SMILES. Read-outs that look alike come from different tables or passages of the source.

Turning to `COC(=O)C1=CCCN(C)C1` [Arecoline, reference compound], the EC50 in data set [1] was 0.331 µM. In addition, in data set [2], the “effect on patients having a memory defect” value is “positive effect on patients having a memory defect”. In addition, the ED (-1 C body temperature) was 194 mg/kg in data set [3] (po, per os) and 3 mg/kg in data set [3] (sc, s.c.). In data set [4], the “activity by oral route” value is given as “very weak activity by oral route”. Besides, in data set [5], the ED50 was 35 mg/kg.

With `CON=C(C)C1=CCCN(C)C1` [Example 2, 1-methyl-3-acetyl-1,2,5,6-tetrahydropyridine-O-methyl-oxime], the EC50 in data set [1] was 14.1 µM. In addition, the “Variation of the Body Temperature” value is “+0.1 °C” in data set [3] (20 mg/kg p.o., 0 min); -1.3 °C in data set [3] (20 mg/kg p.o., 30 min); -1.3 °C in data set [3] (20 mg/kg p.o., 60 min); -0.9 °C in data set [3] (20 mg/kg p.o., 120 min); 0 °C in data set [3] (20 mg/kg p.o., 180 min); “+0.1 °C” in data set [3] (40 mg/kg s.c., 0 min). For the same compound, the “Variation of the Body Temperature” value in data set [3] (40 mg/kg s.c., 30 min) is -1.0 °C; in data set [3] (40 mg/kg s.c., 60 min), -1.4 °C; in data set [3] (40 mg/kg s.c., 120 min) it was -1.1 °C; in data set [3] (40 mg/kg s.c., 180 min), -0.8 °C. For the same compound, the ED (-1 C body temperature) in data set [3] (po, per os) is 12 mg/kg; in data set [3] (sc, s.c.) it was 25 mg/kg. For the same compound, the LD50 at 168 h in data set [6] worked out at 350 mg/kg. Besides, the median effective dose (ED50) in data set [5] was > 100 mg/kg.

As to `CC(=NO)C1=CCCNC1` [Example 1, 3-acetyl-1,2,5,6-tetrahydropyridine-oxime], the EC50 in data set [1] is 5.62 µM. The “Variation of the Body Temperature” value is 0 °C in data set [3] (10 mg/kg p.o., 0 min); -0.7 °C in data set [3] (10 mg/kg p.o., 30 min); -1.0 °C in data set [3] (10 mg/kg p.o., 60 min); -0.2 °C in data set [3] (10 mg/kg p.o., 120 min); “+0.1 °C” in data set [3] (10 mg/kg p.o., 180 min); 0 °C in data set [3] (10 mg/kg s.c., 0 min). The “Variation of the Body Temperature” value in data set [3] (10 mg/kg s.c., 30 min) was -0.6 °C; in data set [3] (10 mg/kg s.c., 60 min) it was -0.8 °C; in data set [3] (10 mg/kg s.c., 120 min), -0.2 °C; in data set [3] (10 mg/kg s.c., 180 min), 0 °C. For the same compound, the ED (-1 C body temperature) is 9 mg/kg in data set [3] (po, per os) and 11 mg/kg in data set [3] (sc, s.c.). Moreover, the LD50 at 168 h in data set [6] was 350 mg/kg. Besides, the ED50 in data set [5] was 5 mg/kg.

In the case of `COC(=O)C1=CCCN(C)C1` [Arecoline HBr, reference compound], the “Variation of the Body Temperature” value in data set [3] (3.5 mg/kg s.c., 0 min) was -0.1 °C; in data set [3] (3.5 mg/kg s.c., 30 min), -1.5 °C; in data set [3] (3.5 mg/kg s.c., 60 min), -0.1 °C; in data set [3] (3.5 mg/kg s.c., 120 min) it was “+0.2 °C”; in data set [3] (3.5 mg/kg s.c., 180 min) it was “+0.2 °C”; in data set [3] (200 mg/kg p.o., 0 min) it was “+0.1 °C”. For the same compound, the “Variation of the Body Temperature” value was -1.1 °C in data set [3] (200 mg/kg p.o., 30 min); -1.0 °C in data set [3] (200 mg/kg p.o., 60 min); -0.2 °C in data set [3] (200 mg/kg p.o., 120 min); -0.1 °C in data set [3] (200 mg/kg p.o., 180 min).

For the compound `CON=C(C)C1=CCCN(O)C1` [Example 12, 1-N-hydroxyl-3-acetyl-1,2,5,6-tetrahydropyridine-O-methyl-oxime], the EC50 in data set [1] was 4.07 µM. Moreover, the “Variation of the Body Temperature” value in data set [3] (1 mg/kg p.o., 0 min) is 0 °C; in data set [3] (1 mg/kg p.o., 30 min), -1.3 °C; in data set [3] (1 mg/kg p.o., 60 min) it was -1.1 °C; in data set [3] (1 mg/kg p.o., 120 min), 0 °C; in data set [3] (1 mg/kg p.o., 180 min), 0 °C; in data set [3] (1 mg/kg s.c., 0 min), -0.1 °C. In addition, the “Variation of the Body Temperature” value in data set [3] (1 mg/kg s.c., 30 min) was -1.4 °C; in data set [3] (1 mg/kg s.c., 60 min) it was -1.3 °C; in data set [3] (1 mg/kg s.c., 120 min), “+0.1 °C”; in data set [3] (1 mg/kg s.c., 180 min) it was 0 °C. Moreover, the ED (-1 C body temperature) in data set [3] (po, per os) amounted to 0.77 mg/kg; in data set [3] (sc, s.c.) it was 0.72 mg/kg. Further, the LD50 at 168 h in data set [6] was determined as 175 mg/kg. The median effective dose (ED50) in data set [5] was 1 mg/kg.

Consider `CON=C(C)C1=CCCNC1` [Example 3, 3-acetyl-1,2,5,6-tetrahydropyridine-O-methyl-oxime], for which, in data set [1], the EC50 is 0.0316 µM. For the same compound, the “Variation of the Body Temperature” value in data set [3] (1 mg/kg p.o., 0 min) is “+0.1 °C”; in data set [3] (1 mg/kg p.o., 30 min), -1.1 °C; in data set [3] (1 mg/kg p.o., 60 min), -1.0 °C; in data set [3] (1 mg/kg p.o., 120 min), -0.1 °C; in data set [3] (1 mg/kg p.o., 180 min), -0.1 °C; in data set [3] (1 mg/kg s.c., 0 min), “+0.1 °C”. In addition, the “Variation of the Body Temperature” value in data set [3] (1 mg/kg s.c., 30 min) is -1.0 °C; in data set [3] (1 mg/kg s.c., 60 min), -0.8 °C; in data set [3] (1 mg/kg s.c., 120 min) it was “+0.1 °C”; in data set [3] (1 mg/kg s.c., 180 min), “+0.1 °C”. Further, the ED (-1 C body temperature) worked out at 0.87 mg/kg in data set [3] (po, per os) and 0.91 mg/kg in data set [3] (sc, s.c.). In data set [6], this compound displayed an LD50 at 168 h of 125 mg/kg. The 50% effective dose (ED50) in data set [5] worked out at 0.85 mg/kg.

The values are drawn from patent US5219873A, “Compounds of 1,2,5,6-tetrahydropyridine which are useful as cholinergic agents” (Roussel UCLAF, priority 1987, dated 1993).
